Data from patent publication US5560924A, “Medicament containing a 2-arylpropionic acid derivative in nanosol form and its preparation” (priority 1994, dated 1996).

Key:
[1] = cited from earlier work
[2] = rapid test for determination of the particle surface charge with standard gelatins; format: physicochemical; details: rapid test at pH 4.5, standard type A (IEP 9.5) and type B (IEP 3.5) gelatins, 200 bloom
Protocol: In a first rapid test it is determined what charge the precipitated particles have. […] If the particles are, for example, negatively charged, a gelatin is picked which is positively charged under the given pH conditions. This rapid test for the determination of the particle charge has the advantages that it can be carried out without a great outlay in terms of apparatus and time. A time-consuming and inaccurate zeta potential measurement can thus be dispensed with entirely.
At the same dose of the pharmaceutical substance, in the case of the gelatin which is unsuitable in its state of charge a colloidal system will either not form or immediately become unstable or the pharmaceutical substance will flocculate. If the resulting particles are negatively charged, they are stabilized rather by the gelatin solution of Type A, which is positively charged at a pH of 6, than by the solution containing Type B gelatin; in contrast, in this case Type B either will form no colloidal system or the system will immediately destabilize. The flocculation of the particles can be monitored e.g. via a simple turbidity measurement.
Under identical test conditions, the standard type A gelatin (IEP 9.5/200 bloom) yields a briefly stable nanosol.

[3] = cited from earlier work; remark: listed apart in the source

Row | SMILES | tmax (time to blood level maximum) ([1]; conventional ibuprofen) [h] | time until therapeutic concentrations are achieved ([1]; in 2 of 8 subjects investigated) | surface charge of the particles [2] | pKa [3]
1 | CC(C)Cc1ccc(C(C)C(=O)O)cc1 (racemic) [ibuprofen, 2-(4-isobutylphenyl)propionic acid] | 1 to 2 | more than 4 hours | – | –
2 | CC(C(=O)O)c1cccc(C(=O)c2ccccc2)c1 (racemic) [ketoprofen, 2-(3-benzoylphenyl)propionic acid] | – | – | negative surface charge | 5.3
